Results from US6362212B1, “Oxime derivative and bactericide containing the same as active ingredient” (Shionogi & Company, Ltd., priority 1994, dated 2002).

Tests used:
Type in all cases: in vivo
[1] = system: Pseudoperonospora cubensis; experiment: Controlling effect on Pseudoperonospora cubensis by foliage application (pot experiment); details: foliage spray on cucumber (var. TSUKUBASHIROIBO) first leaves, lesion area after 10 days in moist chamber at 20° C.
Experimental: The following Test Examples illustrate the effects of the fungicide of the present invention. (I. Controlling effects on various plant diseases by foliage application (pot experiment)) A test compound was dissolved in a small amount of N,N-dimethylformamide, and the solution was diluted to a given concentration with distilled water containing a spreader. Thus, a liquid sample to be tested was prepared. The liquid sample was sprayed to test plants, and 24 hours thereafter, pathogens were inoculated by the method described below. […] The seeds of cucumber (var.: […]) were sown in plastic cups (each 9 cm in diameter), followed by cultivation for 2 to 3 weeks. The test compound in the form of a solution or suspension was sprayed to the surface of their first leaves, and a zoosporangia suspension of Pseudoperonospora cubensis cultured on cucumber leaves was dropped on the above leaf surfaces to inoculate the test plants with the pathogen. After the inoculation, the plants were kept in a moist chamber at 20° C. for 10 days. Then, the area of the lesions around the inoculum were observed and the percent control was calculated.

[2] = system: Erysiphe graminis f. sp. tritici; experiment: Controlling effect on Erysiphe graminis f. sp. tritici by foliage application (pot experiment); details: foliage spray on wheat (cv. NORIN No. 61) seedlings, infected area after 10 days in greenhouse at 20° C.
Experimental: The following Test Examples illustrate the effects of the fungicide of the present invention. (I. Controlling effects on various plant diseases by foliage application (pot experiment)) A test compound was dissolved in a small amount of N,N-dimethylformamide, and the solution was diluted to a given concentration with distilled water containing a spreader. Thus, a liquid sample to be tested was prepared. The liquid sample was sprayed to test plants, and 24 hours thereafter, pathogens were inoculated by the method described below. […] The seeds of wheat (cv.: NORIN No. 61) were sown in plastic cups (each 9 cm in diameter), followed by cultivation for 2 to 3 weeks. The test compound in the form of a solution or suspension was sprayed to the seedlings, and conidia of Erysiphe graminis f. sp. tritici cultured on wheat leaves were dropped on the test plants to inoculate the plants with the pathogen. After the inoculation, the plants were kept in a greenhouse at 20° C. for 10 days. The infected area on the leaf was observed, and the percent control was calculated.

Sphaerotheca fuliginea = experiment: Controlling effect on Sphaerotheca fuliginea by foliage application (pot experiment); details: foliage spray on cucumber (cv. TSUKUBASHIROIBO) first leaves, infected area after 10 days in greenhouse at 20° C.
Experimental: The following Test Examples illustrate the effects of the fungicide of the present invention. (I. Controlling effects on various plant diseases by foliage application (pot experiment)) A test compound was dissolved in a small amount of N,N-dimethylformamide, and the solution was diluted to a given concentration with distilled water containing a spreader. Thus, a liquid sample to be tested was prepared. The liquid sample was sprayed to test plants, and 24 hours thereafter, pathogens were inoculated by the method described below. […] Seeds of cucumber ([…]) were sown in plastic cups (each 9 cm in diameter), followed by cultivation for 2 to 3 weeks. The liquid test sample in the form of a solution or suspension was sprayed on the surface of their first leaves. The pathogen was inoculated to the leaves by spraying a conidia suspension of Sphaerotheca fuliginea which had been cultured on the cucumber leaves. After the inoculation, the plants were kept in a greenhouse at 20° C. for 10 days. Then, the infected area on the leaf was observed, and the percent control was calculated.

Pyricularia oryzae = details: foliage spray on rice seedlings (cv. […]), number of lesions six days after the inoculation

| SMILES | Controlling effect on Pseudoperonospora cubensis by foliage application at 500 ppm (percent control) [1] [percent control] | Controlling effect on ErYsiphe graminis f. sp. tritici by foliage application at 500 ppm (percent control) [2] [percent control] | Controlling effect on Sphaerotheca fuliginea by foliage application at 500 ppm (percent control) (Sphaerotheca fuliginea) | Controlling effect on PYricularia orYzae by foliage application at 500 ppm (percent control) (Pyricularia oryzae) | pest or weed control at 500 ppm ([2]; Blumeria graminis, foliar, 240 h, read-out: Controlling effect on ErYsiphe graminis f. sp. tritici by foliage application at 500 ppm (percent control)) [%] | pest or weed control at 500 ppm (Sphaerotheca fuliginea; Podosphaera fuliginea, in Cucumis sativus, foliar, 240 h, read-out: Controlling effect on Sphaerotheca fuliginea by foliage application at 500 ppm (percent control)) [%] |
| --- | --- | --- | --- | --- | --- | --- |
| CON=C(c1ccno1)c1ccccc1COc1ccc(Cl)cc1C (single isomer, unassigned) [541A] | 100 | 90 | 100 | – | – | – |
| CON=C(c1nnn(C)n1)c1ccccc1COc1ccc(C)cc1 [compound 2014] | 100 | – | 100 | – | – | – |
| CON=C(c1ccccc1ON=C(C)c1cccc(C(F)(F)F)c1)C1NCCS1 (stereo not drawn) [Compound No. 2799, 2-[(α-methyl-3-trifluoromethylbenzylidene)aminooxy]phenyl thiazolidin-2-yl ketone O-methyloxime] | 95 | – | – | 100 | 97 | 100 |
| CON=C(c1ccccc1COc1ccccc1Cl)c1nccn1C (single isomer, unassigned) [105A] | 100 | 70 | 100 | 97 | – | – |
| CON=C(c1cc(C)no1)c1ccccc1COc1cccc(Cl)c1 (single isomer, unassigned) [606B] | 100 | – | 100 | – | – | – |
| CON=C(c1nnco1)c1ccccc1COc1cccc(Cl)c1 [compound 706] | 100 | 90 | 100 | 70 | – | – |
| CON=C(c1cc(C)no1)c1ccccc1COc1cccc(C)c1 (single isomer, unassigned) [613A] | 70 | 90 | 100 | 70 | – | – |
| CON=C(c1ccccc1COc1cccc(C(C)C)c1)c1nccn1C (single isomer, unassigned) [146A] | 100 | – | 97 | 97 | – | – |
| CON=C(c1ccon1)c1ccccc1COc1ccccc1Cl (mixture of isomers) [compound 305] | 100 | 90 | 100 | 70 | – | – |
| CON=C(c1nnco1)c1ccccc1COc1ccccc1Cl [compound 705] | 100 | – | 97 | 70 | – | – |
| CON=C(c1cc(C)no1)c1ccccc1COc1ncc(C(F)(F)F)cc1Cl (single isomer, unassigned) [690B, 2-(3-chloro-5-trifluoromethyl-2-pyridyloxymethyl)phenyl 3-methylisoxazol-5-yl ketone O-methyloxime] | 100 | – | – | – | – | – |
| CON=C(c1cc(C)no1)c1ccccc1COc1ccc(Cl)cc1 (single isomer, unassigned) [607B] | 97 | 70 | 97 | – | – | – |
| CON=C(c1cc(C)on1)c1ccccc1COc1ccccc1C (mixture of isomers) [compound 412] | 100 | 70 | 100 | – | – | – |
| CON=C(c1cc(C)no1)c1ccccc1COc1cccc(Cl)c1 (single isomer, unassigned) [606A] | 95 | 70 | 100 | – | – | – |
| CON=C(c1cc(C)no1)c1ccccc1CON=C(C)c1ccc(Cl)cc1 [Compound No. 2507] | 100 | – | 100 | – | – | – |
| CON=C(c1ccccc1COc1cccc(Cl)c1)c1nccn1C (single isomer, unassigned) [106B] | 100 | – | 97 | – | – | – |
| CON=C(c1cc(C)no1)c1ccccc1COc1ccccc1C (single isomer, unassigned) [612B] | 100 | 100 | 100 | – | – | – |
| CON=C(c1cc(C)no1)c1ccccc1COc1cccc(C)c1 (single isomer, unassigned) [613B] | 100 | 70 | 100 | – | – | – |
| CON=C(c1ncon1)c1ccccc1COc1ccc(-c2ccccc2)cc1 [compound 844] | 100 | – | 97 | – | – | – |
| CON=C(c1nnn(C)n1)c1ccccc1COc1ccc(-c2ccccc2)cc1 [compound 2044] | 100 | – | 97 | – | – | – |
| COC(=O)C(C)N(C(=O)Cc1ccccc1)c1c(C)cccc1C (stereo not drawn) [Benalaxyl, reference compound] | 97 | – | – | – | – | – |
| CON=C(c1noc(C)n1)c1ccccc1COc1ccccc1Cl [compound 905] | 99 | – | 90 | – | – | – |
